Source: ChEMBL document CHEMBL1667751, “Synthesis and antimicrobial activity of highly functionalised novel β-lactam grafted spiropyrrolidines and pyrrolizidines” (2011)

What was measured:
[1] = system: Proteus vulgaris; test: Antibacterial activity against Proteus vulgaris at 100 ug/ml after 24 hrs agar diffusion method; format: functional; settings: read-out: DIZ
[2] = system: Staphylococcus aureus; test: Antibacterial activity against Staphylococcus aureus at 75 ug/ml after 24 hrs agar diffusion method; format: functional; settings: read-out: DIZ
[3] = system: Proteus vulgaris; test: Antibacterial activity against Proteus vulgaris at 25 ug/ml after 24 hrs agar diffusion method; format: functional; settings: read-out: DIZ
[4] = system: Salmonella typhi; test: Antibacterial activity against Salmonella typhi at 50 ug/ml after 24 hrs agar diffusion method; format: functional, Salmonella enterica subsp. enterica serovar Typhi; settings: Salmonella enterica, read-out: DIZ
[5] = system: Staphylococcus aureus; test: Antibacterial activity against Staphylococcus aureus at 50 ug/ml after 24 hrs agar diffusion method; format: functional; settings: read-out: DIZ
[6] = system: Staphylococcus aureus; test: Antibacterial activity against Staphylococcus aureus at 100 ug/ml after 24 hrs agar diffusion method; format: functional; settings: read-out: DIZ
[7] = system: Salmonella typhi; test: Antibacterial activity against Salmonella typhi at 25 ug/ml after 24 hrs agar diffusion method; format: functional, Salmonella enterica subsp. enterica serovar Typhi; settings: Salmonella enterica, read-out: DIZ
[8] = system: Proteus mirabilis; test: Antibacterial activity against Proteus mirabilis at 75 ug/ml after 24 hrs agar diffusion method; format: functional; settings: read-out: DIZ
[9] = system: Proteus vulgaris; test: Antibacterial activity against Proteus vulgaris at 50 ug/ml after 24 hrs agar diffusion method; format: functional; settings: read-out: DIZ
[10] = system: Proteus mirabilis; test: Antibacterial activity against Proteus mirabilis at 50 ug/ml after 24 hrs agar diffusion method; format: functional; settings: read-out: DIZ
[11] = system: Staphylococcus aureus; test: Antibacterial activity against Staphylococcus aureus at 25 ug/ml after 24 hrs agar diffusion method; format: functional; settings: read-out: DIZ
[12] = system: Proteus vulgaris; test: Antibacterial activity against Proteus vulgaris at 75 ug/ml after 24 hrs agar diffusion method; format: functional; settings: read-out: DIZ
[13] = system: Salmonella typhi; test: Antibacterial activity against Salmonella typhi at 75 ug/ml after 24 hrs agar diffusion method; format: functional, Salmonella enterica subsp. enterica serovar Typhi; settings: Salmonella enterica, read-out: DIZ
[14] = system: Proteus mirabilis; test: Antibacterial activity against Proteus mirabilis at 25 ug/ml after 24 hrs agar diffusion method; format: functional; settings: read-out: DIZ
[15] = system: Proteus mirabilis; test: Antibacterial activity against Proteus mirabilis at 100 ug/ml after 24 hrs agar diffusion method; format: functional; settings: read-out: DIZ
[16] = system: Salmonella typhi; test: Antibacterial activity against Salmonella typhi at 100 ug/ml after 24 hrs agar diffusion method; format: functional, Salmonella enterica subsp. enterica serovar Typhi; settings: Salmonella enterica, read-out: DIZ

CCOC(=O)[C@@H]1[C@@H]([C@H]2[C@@H](Oc3ccccc3)C(=O)N2c2ccc(OC)cc2)CN(C)C12C(=O)c1ccccc1C2=O
zone of inhibition at 100 µg/mL [1]: 23 mm
zone of inhibition at 75 µg/mL [2]: 16 mm
zone of inhibition at 25 µg/mL [3]: 12 mm
zone of inhibition at 50 µg/mL [4]: 11 mm
zone of inhibition at 50 µg/mL [5]: 13 mm
zone of inhibition at 100 µg/mL [6]: 18 mm
zone of inhibition at 25 µg/mL [7]: 9 mm
zone of inhibition at 75 µg/mL [8]: 16 mm
zone of inhibition at 50 µg/mL [9]: 16 mm
zone of inhibition at 50 µg/mL [10]: 13 mm
zone of inhibition at 25 µg/mL [11]: 11 mm
zone of inhibition at 75 µg/mL [12]: 20 mm
zone of inhibition at 75 µg/mL [13]: 13 mm
zone of inhibition at 25 µg/mL [14]: 9 mm
zone of inhibition at 100 µg/mL [15]: 18 mm
zone of inhibition at 100 µg/mL [16]: 19 mm

CCOC(=O)[C@@H]1[C@@H]([C@H]2[C@@H](c3ccccc3)C(=O)N2c2ccc(OC)cc2)CN(C)C12C(=O)c1ccccc1C2=O
zone of inhibition at 100 µg/mL [1]: 21 mm
zone of inhibition at 75 µg/mL [2]: 18 mm
zone of inhibition at 25 µg/mL [3]: 11 mm
zone of inhibition at 50 µg/mL [4]: 9 mm
zone of inhibition at 50 µg/mL [5]: 15 mm
zone of inhibition at 100 µg/mL [6]: 22 mm
zone of inhibition at 75 µg/mL [8]: 14 mm
zone of inhibition at 50 µg/mL [9]: 14 mm
zone of inhibition at 50 µg/mL [10]: 13 mm
zone of inhibition at 25 µg/mL [11]: 11 mm
zone of inhibition at 75 µg/mL [12]: 18 mm
zone of inhibition at 75 µg/mL [13]: 13 mm
zone of inhibition at 25 µg/mL [14]: 11 mm
zone of inhibition at 100 µg/mL [15]: 18 mm
zone of inhibition at 100 µg/mL [16]: 18 mm

CCOC(=O)[C@@H]1[C@@H]([C@H]2[C@@H](Oc3ccccc3)C(=O)N2c2ccc(OC)cc2)C2CCCN2C12C(=O)c1ccccc1C2=O (stereo not given in full)
zone of inhibition at 100 µg/mL [1]: 26 mm
zone of inhibition at 75 µg/mL [2]: 18 mm
zone of inhibition at 25 µg/mL [3]: 9 mm
zone of inhibition at 50 µg/mL [4]: 15 mm
zone of inhibition at 50 µg/mL [5]: 14 mm
zone of inhibition at 100 µg/mL [6]: 24 mm
zone of inhibition at 25 µg/mL [7]: 11 mm
zone of inhibition at 75 µg/mL [8]: 18 mm
zone of inhibition at 50 µg/mL [9]: 18 mm
zone of inhibition at 50 µg/mL [10]: 15 mm
zone of inhibition at 25 µg/mL [11]: 9 mm
zone of inhibition at 75 µg/mL [12]: 23 mm
zone of inhibition at 75 µg/mL [13]: 17 mm
zone of inhibition at 25 µg/mL [14]: 8 mm
zone of inhibition at 100 µg/mL [15]: 22 mm
zone of inhibition at 100 µg/mL [16]: 23 mm

CCOC(=O)[C@@H]1[C@@H]([C@H]2[C@@H](c3ccccc3)C(=O)N2c2ccc(OC)cc2)C2CCCN2C12C(=O)c1ccccc1C2=O (stereo not given in full)
zone of inhibition at 100 µg/mL [1]: 24 mm
zone of inhibition at 75 µg/mL [2]: 16 mm
zone of inhibition at 25 µg/mL [3]: 12 mm
zone of inhibition at 50 µg/mL [4]: 12 mm
zone of inhibition at 50 µg/mL [5]: 13 mm
zone of inhibition at 100 µg/mL [6]: 28 mm
zone of inhibition at 25 µg/mL [7]: 9 mm
zone of inhibition at 75 µg/mL [8]: 16 mm
zone of inhibition at 50 µg/mL [9]: 17 mm
zone of inhibition at 50 µg/mL [10]: 15 mm
zone of inhibition at 25 µg/mL [11]: 9 mm
zone of inhibition at 75 µg/mL [12]: 20 mm
zone of inhibition at 75 µg/mL [13]: 14 mm
zone of inhibition at 25 µg/mL [14]: 10 mm
zone of inhibition at 100 µg/mL [15]: 23 mm
zone of inhibition at 100 µg/mL [16]: 20 mm

CCOC(=O)[C@@H]1[C@@H]([C@H]2[C@@H](Oc3ccccc3)C(=O)N2c2ccc(OC)cc2)CN(C)[C@]12C(=O)Nc1ccccc12
zone of inhibition at 100 µg/mL [1]: 21 mm
zone of inhibition at 75 µg/mL [2]: 21 mm
zone of inhibition at 25 µg/mL [3]: 11 mm
zone of inhibition at 50 µg/mL [4]: 14 mm
zone of inhibition at 50 µg/mL [5]: 19 mm
zone of inhibition at 100 µg/mL [6]: 26 mm
zone of inhibition at 25 µg/mL [7]: 11 mm
zone of inhibition at 75 µg/mL [8]: 22 mm
zone of inhibition at 50 µg/mL [9]: 14 mm
zone of inhibition at 50 µg/mL [10]: 13 mm
zone of inhibition at 25 µg/mL [11]: 14 mm
zone of inhibition at 75 µg/mL [12]: 18 mm
zone of inhibition at 75 µg/mL [13]: 20 mm
zone of inhibition at 25 µg/mL [14]: 12 mm
zone of inhibition at 100 µg/mL [15]: 32 mm
zone of inhibition at 100 µg/mL [16]: 28 mm

CCOC(=O)[C@@H]1[C@@H]([C@H]2[C@@H](c3ccccc3)C(=O)N2c2ccc(OC)cc2)CN(C)[C@]12C(=O)Nc1ccccc12
zone of inhibition at 100 µg/mL [1]: 20 mm
zone of inhibition at 75 µg/mL [2]: 23 mm
zone of inhibition at 25 µg/mL [3]: 11 mm
zone of inhibition at 50 µg/mL [4]: 15 mm
zone of inhibition at 50 µg/mL [5]: 18 mm
zone of inhibition at 100 µg/mL [6]: 27 mm
zone of inhibition at 25 µg/mL [7]: 12 mm
zone of inhibition at 75 µg/mL [8]: 18 mm
zone of inhibition at 50 µg/mL [9]: 14 mm
zone of inhibition at 50 µg/mL [10]: 14 mm
zone of inhibition at 25 µg/mL [11]: 14 mm
zone of inhibition at 75 µg/mL [12]: 16 mm
zone of inhibition at 75 µg/mL [13]: 21 mm
zone of inhibition at 25 µg/mL [14]: 11 mm
zone of inhibition at 100 µg/mL [15]: 21 mm
zone of inhibition at 100 µg/mL [16]: 29 mm
